{"source": "patent US20220233661A1", "about": "“METHOD OF DETERMINING ELIGIBILITY OF CANCER PATIENT FOR PEPTIDE VACCINE THERAPY” (priority 2019, published 2022)", "key": {"[1]": {"tested_on": "anti-peptide IgG in plasma", "test": "Test Example 4: peptide-specific IgG titer pre and post vaccination, bead-based multiplexed Luminex assay", "assay_type": "in vivo, human", "settings": "for Pre-vaccination IgG Negative (number of patients) / Pre-vaccination IgG Positive (number of patients): cut off 10 FIU; for Post vaccination IgG: number of (positive) patients among vaccinated: positive IgG response; for Pre-vaccination IgG Negative patients: number of 2,588 patients below 10 FIU; for Pre-vaccination IgG Positive patients: number of 2,588 patients with ≥10 FIU; for Post vaccination IgG: (positive) patients: number of vaccinated patients with positive IgG response; for Correlation between immune responses and OS: Negative (mOS): patients with negative post-vaccination IgG response to the peptide; for Correlation between immune responses and OS: Positive (mOS): patients with positive post-vaccination IgG response to the peptide", "procedure,_shortened": "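Plasma taken before vaccination and at the end of the first and second cycles; incubated with peptide-coupled beads 2 hours at 25° C., then biotinylated anti-human IgG (gamma chain-specific) and streptavidin-PE. Bead FIU read by Luminex; positivity cutoff 10 FIU in 100-fold diluted samples.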"}, "cancer patients": {"tested_on": "cancer patients", "test": "Test Example 4: correlation between vaccination with individual peptides (or peptide sets) and OS, Cox proportional hazards regression", "assay_type": "in vivo, human", "settings": "for HR: Cox proportional hazards regression, OS; for Correlation between immune responses and OS: Negative (mOS) / Correlation between immune responses and OS: Positive (mOS): Table 20, <64% neutrophil and ≥26% lymphocyte; for Correlation between immune responses and OS: Negative (mOS): vaccinated patients with negative IgG response; for Correlation between immune responses and OS: Positive (mOS): vaccinated patients with positive IgG response", "procedure,_shortened": "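Univariate and multivariate Cox proportional hazards regression of each of 31 vaccine peptides against OS (enrollment to death or last contact), giving HR with 95% CI; also run separately in 2,085 advanced (stage IV+recurrence) and 503 stage I-III patients. Two-sided p<0.05 considered significant.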"}, "[2]": {"settings": "Table 20, patients showing both <64% neutrophil and ≥26% lymphocyte"}, "[3]": {"settings": "patients showing detectable levels"}, "[4]": {"settings": "patients showing positive responses"}, "[5]": {"settings": "Table 18, all 2,588 cases, vaccinated vs non-vaccinated"}, "[6]": {"settings": "Table 18, all 2,588 cases, median OS of patients under PPV containing the peptide"}, "[7]": {"settings": "Table 18, all 2,588 cases, median OS of patients under PPV not containing the peptide"}, "[8]": {"settings": "Table 19, 2,085 advanced cancer patients (stage IV+recurrence)"}, "[9]": {"settings": "Table 19, 2,085 advanced cancer patients (stage IV+recurrence), PPV containing the peptide"}, "[10]": {"settings": "Table 19, 2,085 advanced cancer patients (stage IV+recurrence), PPV not containing the peptide"}, "[11]": {"settings": "Table 21, patients showing both <64% neutrophil and ≥26% lymphocyte"}, "[12]": {"settings": "Table 21, patients showing both <64% neutrophil and ≥26% lymphocyte, PPV containing the peptide"}, "[13]": {"settings": "Table 21, patients showing both <64% neutrophil and ≥26% lymphocyte, PPV not containing the peptide"}}}
{"sequence": "KYVGIEREM (listed as Homo sapiens) [EZH2-735]", "values": [{"measurement": "Post vaccination IgG Median (FIU)", "setting": "[1]; [2]", "value": "20,673 FIU"}, {"measurement": "Pre-vaccination IgG Median (FIU)", "setting": "[1]; [2]", "value": 23, "unit": "FIU"}, {"measurement": "Pre-vaccination IgG Negative (number of patients)", "setting": "[1]; [2]", "value": 837}, {"measurement": "Pre-vaccination IgG Positive (number of patients)", "setting": "[1]; [2]", "value": 229}, {"measurement": "Post vaccination IgG: number of (positive) patients among vaccinated", "setting": "[1]; [2]", "value": "31(25)"}, {"measurement": "Pre-vaccination IgG Negative patients", "setting": "[1]", "value": "2,030"}, {"measurement": "Pre-vaccination IgG Positive patients", "setting": "[1]", "value": 558}, {"measurement": "Post vaccination IgG: (positive) patients", "setting": "[1]", "value": "69(51)"}, {"measurement": "Pre-vaccination IgG Median (FIU)", "setting": "[1]; [3]", "value": 23, "unit": "FIU"}, {"measurement": "Post vaccination IgG Median (FIU)", "setting": "[1]; [4]", "value": "17,691 FIU"}, {"measurement": "positive immune responses post-vaccination (positive of vaccinated cases)", "setting": "[1]; patients who completed at least the first cycle", "value": "51 of 69"}, {"measurement": "Correlation between immune responses and OS: Negative (mOS)", "setting": "[1]", "value": 5.3, "unit": "months"}, {"measurement": "Correlation between immune responses and OS: Positive (mOS)", "setting": "[1]", "value": 24.7, "unit": "months"}, {"measurement": "HR", "setting": "cancer patients; [5]", "value": 0.9}, {"measurement": "Vaccinate cases (mOS)", "setting": "cancer patients; [6]", "value": "69(13.3) M"}, {"measurement": "Non-vaccinate cases (mOS)", "setting": "cancer patients; [7]", "value": "1,481(11.9) M"}, {"measurement": "HR", "setting": "cancer patients; [8]", "value": 0.9}, {"measurement": "Vaccinate cases (mOS)", "setting": "cancer patients; [9]", "value": "53(11.9) M"}, {"measurement": "Non-vaccinate cases (mOS)", "setting": "cancer patients; [10]", "value": "1193(10.4) M"}, {"measurement": "Correlation between immune responses and OS: Negative (mOS)", "setting": "cancer patients", "value": 6.7, "unit": "months"}, {"measurement": "Correlation between immune responses and OS: Positive (mOS)", "setting": "cancer patients", "value": 26.7, "unit": "months"}, {"measurement": "HR", "setting": "cancer patients; [11]", "value": 0.7}, {"measurement": "Vaccinate cases (mOS)", "setting": "cancer patients; [12]", "value": "31(26.5) M"}, {"measurement": "Non-vaccinate cases (mOS)", "setting": "cancer patients; [13]", "value": "594(18.0) M"}]}
{"sequence": "ILGELREKV (listed as Homo sapiens) [WHSC2-141]", "values": [{"measurement": "Post vaccination IgG Median (FIU)", "setting": "[1]; [2]", "value": "18,171 FIU"}, {"measurement": "Pre-vaccination IgG Median (FIU)", "setting": "[1]; [2]", "value": 38, "unit": "FIU"}, {"measurement": "Pre-vaccination IgG Negative (number of patients)", "setting": "[1]; [2]", "value": 261}, {"measurement": "Pre-vaccination IgG Positive (number of patients)", "setting": "[1]; [2]", "value": 805}, {"measurement": "Post vaccination IgG: number of (positive) patients among vaccinated", "setting": "[1]; [2]", "value": "134(91)"}, {"measurement": "Pre-vaccination IgG Negative patients", "setting": "[1]", "value": 680}, {"measurement": "Pre-vaccination IgG Positive patients", "setting": "[1]", "value": "1,908"}, {"measurement": "Post vaccination IgG: (positive) patients", "setting": "[1]", "value": "325(173)"}, {"measurement": "Pre-vaccination IgG Median (FIU)", "setting": "[1]; [3]", "value": 39, "unit": "FIU"}, {"measurement": "Post vaccination IgG Median (FIU)", "setting": "[1]; [4]", "value": "13,078 FIU"}, {"measurement": "Correlation between immune responses and OS: Negative (mOS)", "setting": "[1]", "value": 7.7, "unit": "months"}, {"measurement": "Correlation between immune responses and OS: Positive (mOS)", "setting": "[1]", "value": 19.0, "unit": "months"}, {"measurement": "HR", "setting": "cancer patients; [5]", "value": 1.0}, {"measurement": "Vaccinate cases (mOS)", "setting": "cancer patients; [6]", "value": "325(12.1) M"}, {"measurement": "Non-vaccinate cases (mOS)", "setting": "cancer patients; [7]", "value": "725(11.1) M"}, {"measurement": "HR", "setting": "cancer patients; [8]", "value": 1.0}, {"measurement": "Vaccinate cases (mOS)", "setting": "cancer patients; [9]", "value": "271(11.1) M"}, {"measurement": "Non-vaccinate cases (mOS)", "setting": "cancer patients; [10]", "value": "591(10.1) M"}, {"measurement": "Correlation between immune responses and OS: Negative (mOS)", "setting": "cancer patients", "value": 12, "unit": "months"}, {"measurement": "Correlation between immune responses and OS: Positive (mOS)", "setting": "cancer patients", "value": 28.2, "unit": "months"}, {"measurement": "HR", "setting": "cancer patients; [11]", "value": 1.0}, {"measurement": "Vaccinate cases (mOS)", "setting": "cancer patients; [12]", "value": "134(18.0) M"}, {"measurement": "Non-vaccinate cases (mOS)", "setting": "cancer patients; [13]", "value": "300(16.6) M"}]}
